Measured values reported in patent US5457114A, “Amidinophenylalanine derivatives, a process for the preparation thereof, use thereof and agents containing these as anticoagulants” (Behringwerke Aktiengesellschaft, priority 1991, dated 1995).

Experiments:
[1] = target: T1, Trypsin from bovine pancreas (Bos taurus, UniProt P00760); assay: Determination of the specificity of the inhibitors (trypsin versus thrombin); type: biochemical; conditions: ratio of the Ki values for trypsin and thrombin; Ki calculated from IC50
T1 construct: from tissue; host or cells: bovine pancreas
T1 sequence (P00760 24-246): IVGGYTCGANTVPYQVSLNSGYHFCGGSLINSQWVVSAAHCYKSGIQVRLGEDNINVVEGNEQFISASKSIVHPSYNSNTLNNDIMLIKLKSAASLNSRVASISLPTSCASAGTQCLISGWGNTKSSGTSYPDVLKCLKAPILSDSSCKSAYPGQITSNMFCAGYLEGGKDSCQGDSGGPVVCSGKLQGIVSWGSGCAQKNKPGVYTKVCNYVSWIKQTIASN
Experimental: The specificity of the inhibitors for thrombin and trypsin was determined. The specificity is defined as the ratio of the Ki values for trypsin and thrombin (Table II). […] The enzymatic reaction was started by adding the substrate Chromozym TRY (7.1×10^-5 M). The liberation of pNA was measured at 405 nm after one hour. The IC50 values for thrombin were determined in an analogous manner, with the exceptions that human thrombin, buffer (50 mM tris-HCl, 50 mM NaCl, pH 7.8) and 5×10^-5 M S 2238 were used. The Ki values were calculated ([…]) from the IC50 value for thrombin and trypsin. The specificities emerged from the ratio of the trypsin and thrombin values.

human thrombin = human thrombin (Homo sapiens, UniProt P00734); assay: Determination of the inhibition constants for thrombin; type: biochemical; conditions: human thrombin 100 pM, 0.1 mM substrate S2238, pH 7.8, 37 degrees C., 10 min preincubation
Experimental: The inhibition constants (Ki) for the substances were determined by known enzyme kinetic methods. The purity of the human thrombin employed was determined to be 87% by means of active site titration. […] Inhibitor and enzyme were preincubated for 10 minutes, and the reaction was started by adding the chromogenic substrate S2238.
The specificity of the inhibitors for thrombin and trypsin was determined. The specificity is defined as the ratio of the Ki values for trypsin and thrombin (Table II). […] The Ki values were calculated ([…]) from the IC50 value for thrombin and trypsin. The specificities emerged from the ratio of the trypsin and thrombin values.

[2] = rat, i.v.
Enteral administration = conditions: in vivo

Question: Which Specificity thrombin/trypsin [1] does the source give for `N=C(N)c1ccc(CC(NC(=O)CNS(=O)(=O)c2ccc3ccccc3c2)C(=O)N2CCCCC2)cc1` (stereo not drawn) [Napap, beta-naphthylsulfonyl-glycyl-R,S-4-amidinophenylalanyl piperidide, reference compound] here?
Answer: 24

Question: For “Beta-Naphthylsulfonyl-L-aspartic Acid D-p-amidinophenyl-alanyl-piperidide [Nas-Asp-D-Aph-Pip]”, which Ki (human thrombin) is on record?
Answer: 10 nM

Question: What about the Specificity thrombin/trypsin [1] of the same compound?
Answer: 7

Question: For `COc1cc(C)c(S(=O)(=O)N[C@@H](CC(=O)N[C@@H]2O[C@H](C(=O)O)[C@@H](O)[C@H](O)[C@H]2O)C(=O)N[C@H](Cc2ccc(C(=N)N)cc2)C(=O)N2CCCCC2)c(C)c1C` [4-Methoxy-2,3,6-trimethylphenylsulfonyl-L-asparaginyl-N-[β-D-glucopyranosyl)uronic acid]-D-p-amidinophenylalanyl Piperidide], which Ki (human thrombin) is on record?
Answer: 0.085 nM

Question: And the Specificity thrombin/trypsin [1]?
Answer: 4106

Question: Which results are given for `COc1cc(C)c(S(=O)(=O)N[C@@H](CC(=O)OC(C)C)C(=O)N[C@H](Cc2ccc(C(=N)N)cc2)C(=O)N2CCCCC2)c(C)c1C` [Mtr-Asp(iPr)-Aph-Pip, Mtr-L-Asp(OiPr)-D-Aph-Pip]?
Answer: Ki (human thrombin): 0.6 nM; Specificity thrombin/trypsin [1]: 378

Question: With `COc1cc2ccc(S(=O)(=O)N[C@@H](CC(=O)O)C(=O)N[C@H](Cc3ccc(C(=N)N)cc3)C(=O)N3CCCCC3)cc2cc1OC` [Dmn-Asp-D-Aph-Pip, 6,7-Dimethoxy-β-naphthalenesulfonyl-L-Asp-D-p-amidinophenylalanyl Piperidide] as the compound, how does the Ki (human thrombin) read?
Answer: 6 nM

Question: What about the Specificity thrombin/trypsin [1] of the same compound?
Answer: 230

Question: With `COc1cc(C)c(S(=O)(=O)N[C@@H](CC(=O)NCCCC(=O)O)C(=O)N[C@H](Cc2ccc(C(=N)N)cc2)C(=O)N2CCCCC2)c(C)c1C` [4-Methoxy-2,3,6-trimethylbenzenesulfonyl-L-aspartic Acid (Gamma-aminobutyric Acid)-D-Aph-piperidide] as the compound, how does the Ki (human thrombin) read?
Answer: 0.8 nM

Question: What about the Specificity thrombin/trypsin [1] of the same compound?
Answer: 1810

Question: With `N=C(N)c1ccc(C[C@H](NC(=O)[C@H](CC(N)=O)NS(=O)(=O)c2ccc3ccccc3c2)C(=O)N2CCCCC2)cc1` [Nas-Asn-Aph-Pip] as the compound, how does the Ki (human thrombin) read?
Answer: 6 nM

Question: And the Specificity thrombin/trypsin [1]?
Answer: 48

Question: For `N=C(N)c1ccc(CC(NC(=O)[C@H](CC(=O)O)NS(=O)(=O)c2ccc3ccccc3c2)C(=O)N2CCCCC2)cc1` (stereo partly drawn) [β-naphthylsulfonyl-L-Asp-D,L-Aph-Pip, β-Naphthylsulfonyl-L-Asp-D,L-Aph-Pip], which LD50 [2] is on record?
Answer: about 120 mg/kg

Question: Which results are given for `COc1cc(C)c(S(=O)(=O)NC(CC(=O)OC(C)(C)C)C(=O)NC(Cc2ccc(C(=N)N)cc2)C(=O)N2CCCCC2)c(C)c1C` [Mtr-Asp(tBu)-Aph-Pip, Mtr-L-Asp(OtBu)-D-Aph-Pip]?
Answer: Ki (human thrombin): 0.9 nM; Specificity thrombin/trypsin [1]: 297

Question: Which Ki (human thrombin) does the source give for `COc1cc(C)c(S(=O)(=O)N[C@@H](CC(=O)O)C(=O)N[C@H](Cc2ccc(C(=N)N)cc2)C(=O)N2CCCCC2)c(C)c1C` [Mtr-Asp-D-Aph-Pip, 4-Methoxy-2,3,6-trimethylphenylsulfonyl-L-Asp-D-p-amidinophenylalanyl Piperidide] here?
Answer: 1.5 nM

Question: And the Specificity thrombin/trypsin [1]?
Answer: 125

Question: And the “possibility of enteral administration” value (Enteral administration)?
Answer: possibility of enteral administration

Question: With “4-Methoxy-2,3,6-trimethylphenylsulfonyl-L-Cys(SO3 H)-D-p-amidinophenylalanyl Piperidide [Mtr-L-Cys (SO3 H)-D-Aph-Pip]” as the compound, how does the Ki (human thrombin) read?
Answer: 0.6 nM

Question: And the Specificity thrombin/trypsin [1]?
Answer: 150
